For one compound, Ki and IC50 results are on record in PMC3726336, “Product inhibition of cellulases studied with ^14C-labeled cellulose substrates” (Biotechnology for Biofuels, 2013).

Each structure is given as a SMILES string. Read-outs that look alike come from different tables or passages of the source.

Test [1] has as its target T1, TaCel7A (Thermoascus aurantiacus, UniProt A7WNU2). Kind of test: Cellobiose inhibition of MUL hydrolysis by TaCel7A. Type of test: biochemical. Conditions: MUL substrate (5 μM). The text has this:
The cellobiose inhibition of GH7 CBHs is most often studied on low-Mw model substrates. However, it has been shown that the inhibition of CBHs acting on low-Mw substrates appears to be much stronger than that on cellulose substrates. The Ki values for cellobiose inhibition of GH7 CBHs measured on low-Mw substrates are in the micromolar range [44, 51, 52], whereas those measured on cellulose are in the low- to high-millimolar range [28, 31, 32]. […] Unfortunately, the inhibition of this enzyme on cellulose has not been studied. We also studied the cellobiose inhibition of GH7 CBHs acting on MUL. The initial rates of MUL hydrolysis measured in the presence and absence of added cellobiose were first analyzed according to Equation 1, and the IC50 values were found using Equation 2. […] The inhibition of MUL hydrolysis is attributable to the binding of cellobiose to the product sites (+1/+2) of TrCel7A [52]. […]
For the inhibition of enzyme acting on the low-Mw substrate, the initial rates of the hydrolysis of MUL in the presence and absence of added cellobiose were followed. […] Reactions were stopped by the addition of NH3 (final concentration 0.1 M), and the released 4-methylumbelliferone was quantified by fluorescence using excitation and emission wavelengths of 360 nm and 450 nm, respectively.

Test [2] concerns the target T1, TaCel7A. As to the kind of experiment: Inhibition of synergistic hydrolysis of 14C-BC by TaCel7A (supplemented with EG TrCel5A). To be noted: 14C-BC substrate, read-out: IC50 for cellobiose. Type of test: biochemical. As for the experimental part:
To study the cellobiose inhibition of GH7 CBHs, the synergistic hydrolysis of ^14C-BC in the presence of added cellobiose was followed (Figure 3, Additional file 1: Figures S1 and S2). Because the cellobiose inhibition of the EG TrCel5A is much weaker than that of GH7 CBHs, the inhibition of synergistic hydrolysis apparently reflects the inhibition of CBH. The strength of cellobiose inhibition was analyzed using plots of (DCB/DCB=0) versus [cellobiose], where DCB and DCB=0 represent the degree of conversion of ^14C-BC in the presence and absence of cellobiose, respectively (Figure 4, Additional file 1: Figure S3). […]
where [CB] is the concentration of cellobiose; [^14CBC] is the concentration of ^14C-BC used in the experiment; and C1, C2 and H are empirical constants. Equation 5 differs from Equation 1 by the presence of constant H. H was included to improve the fit and is a constant that accounts for the background radioactivity (the degree of conversion that is independent of CBH). The degree of conversion resulting from the activity of the EG was measured in a separate experiment (Additional file 1: Figure S4) and was subtracted from the degree of conversion resulting from the synergistic hydrolysis. […] Provided with the values of C1, C2 and H, the value of IC50 was calculated as follows: […]

Test [3] concerns the target Cel7A from Trichoderma harzianum. Also on record: method as in PMID 23114223. To be noted: hydrolysis of chloro-nitrophenyl lactoside; read-out: Ki value for cellobiose inhibition; cited from earlier work.

By Ki is commonly meant the dissociation constant of the complex between target and ligand, obtained from inhibition or displacement. A word on the IC50: it is the concentration at which inhibition is half-maximal.

T1 sequence (A7WNU2 entry or part of it): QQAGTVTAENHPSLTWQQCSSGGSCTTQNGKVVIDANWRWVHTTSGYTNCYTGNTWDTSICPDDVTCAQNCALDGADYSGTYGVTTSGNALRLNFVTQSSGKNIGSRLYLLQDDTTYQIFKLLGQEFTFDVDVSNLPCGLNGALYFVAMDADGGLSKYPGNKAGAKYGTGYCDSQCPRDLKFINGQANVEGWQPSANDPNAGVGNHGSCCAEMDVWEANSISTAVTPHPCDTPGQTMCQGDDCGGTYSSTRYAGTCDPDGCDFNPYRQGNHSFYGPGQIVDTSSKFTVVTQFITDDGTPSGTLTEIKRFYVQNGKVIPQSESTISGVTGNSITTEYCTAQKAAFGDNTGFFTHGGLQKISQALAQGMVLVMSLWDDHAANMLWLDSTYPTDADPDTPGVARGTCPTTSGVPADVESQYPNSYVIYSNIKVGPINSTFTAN

Regarding `O=C[C@H](O)[C@@H](O)[C@H](O[C@@H]1O[C@H](CO)[C@@H](O)[C@H](O)[C@H]1O)[C@H](O)CO` [cellobiose, Cellobiose], the values for the Ki (on TaCel7A [1] (35°C); at TaCel7A [1] (50°C); in test [3]) were 176 µM, 355 µM and 7200 µM, respectively. The IC50 on TaCel7A [2] (35°C) was determined as 580 ± 350 µM; on TaCel7A [2] (50°C), 930 ± 100 µM.
